Results reported in patent US7115639B2, “Pyrrolidine oxadiazole- and thiadiazole oxime derivatives being oxytocin receptor antagonists” (Applied Research Systems ARS Holding N.V., priority 2001, dated 2006).

How the values were obtained:
hOT receptor = molecular target: T1, hOT receptor (Homo sapiens, UniProt P30559); test: In vitro competition binding assay with scintillating proximity assay; conditions: [125I]-OVTA competition; membranes from HEK293EBNA cells expressing the hOT receptor; read-out: Binding affinity human OT-R IC50
T1 construct: expressed in transfected cells; host or cells: HEK293EBNA
T1 sequence (P30559 1-389): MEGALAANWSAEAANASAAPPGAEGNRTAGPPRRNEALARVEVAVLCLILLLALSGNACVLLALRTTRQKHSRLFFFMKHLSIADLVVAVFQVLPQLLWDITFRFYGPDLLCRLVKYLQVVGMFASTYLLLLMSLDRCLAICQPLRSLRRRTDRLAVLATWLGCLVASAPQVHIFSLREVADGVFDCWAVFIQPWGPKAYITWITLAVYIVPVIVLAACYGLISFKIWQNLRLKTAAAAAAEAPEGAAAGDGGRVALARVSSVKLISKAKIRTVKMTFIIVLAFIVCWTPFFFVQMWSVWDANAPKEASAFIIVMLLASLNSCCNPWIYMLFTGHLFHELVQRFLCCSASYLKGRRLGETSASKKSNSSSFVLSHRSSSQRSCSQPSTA
Procedure: a) In Vitro Competition Binding Assay with Scintillating Proximity Assay (Pharmaceutical Manufacturing International, 1992, p. 49–53 by Cook, N. D. et al)
This assays allows to determine the affinity of the test compounds for the OT receptor. Membranes from HEK293EBNA cells expressing the hOT receptor were resuspended in buffer containing 50 mM Tris-HCl, pH 7.4, 5 mM MgCl2 and 0.1% BSA (w/v). The membranes (2–4 μg) were mixed with 0.1 mg wheat-germ aglutinin (WGA) SPA bead (type A) and 0.2 nM of the radiolabel [^125I]-OVTA (OVTA being Ornithin Vasoactive and is an analogue of OT for competition binding experiments). Non-specific binding was determined in the presence of 1 μM Oxytocin. The total assay volume was 100 μl. The plates (Corning® NBS plate) were incubated at room temperature for 30 min and counted on a Mibrobeta plate counter. The tests compounds were used in concentrations of 30 μM, 10 μM, 1 μM, 300 nM, 100 nM, 10 nM, 1 nM, 100 pM, 10 pM. The competition binding data were analysed using the iterative, non-linear, curve-fitting program, “Prism”.
The binding affinities to the oxytocin receptor of the pyrrolidine derivatives claimed in the formula I were assessed using the above described in vitro biological assay. The values refer to the binding affinity (IC50; μM) of the example compounds according to formula I to the Oxytocin receptor.

hOT-R = molecular target: T2, hOT-R (Homo sapiens, UniProt P30559); test: Functional assay No. 1: inhibition of Ca2+-mobilization by FLIPR; type: cell-based; conditions: HEK cells, OT 40 nM
T2 construct: expressed in transfected cells; host or cells: HEK (Human Embryonic Kidney) cells
T2 sequence (P30559 1-389): T1 sequence (P30559 1-389)
Excerpt: b) Functional Assay No. 1: Inhibition of Ca^2+-mobilization by FLIPR (Fluorescent Imaging Plate Reader)
FLIPR is a machine for fluorescence imaging using a laser that is capable of illuminating a 96-well plate and a means of simultaneously reading each well thus enabling rapid measurements on a large number of samples.
This assay intends to show the inhibition of the OT/OT-R mediated calcium mobilisation—being necessary to cause uterine contractions—by using test compounds of formula (I).
Preparing the plates: FLIPR-plates were pre-coated with PLL (Poly-L-Lysine) 10 μg/ml+0.1% gelatine to attach the HEK (Human Embryonic Kidney) cells for 30 min up to 2 days at 37° C. The cells were plated out into 96-well plates (60000 cells/well).
Labelling with fluo-4: 50 μg fluo-4 (fluorescent marker) were dissolved in 20 μl pluronic acid (20% in DMSO). The dissolved fluo-4 was then diluted in 10 ml DMEM (Dubecco's Minimal Essential Medium-F12 medium without FCS (Fetal Calf Serum). The medium was removed from the plates, followed by one wash with DMEM-F12 medium. Now, 100 μl of the DMEM-F12 medium containing fluo-4 were added and the cells incubated for 1–1.5 h (CHO-cells), and 1.5–2 h (HEK-cells). The cells now contain the fluorescent marker.
Buffer: 145 mM NaCl, 5 mM KCl, 1 mM MgCl2, 10 mM Hepes, 10 mM Glucose, EGTA (Ethylene-bis oxyethylene nitrilo tetraacetic acid). Adjust to pH 7.4.
Performance of the assay: A minimum of 80 μl/well of antagonists (5×) in the above buffer (1×) were prepared (96-well plates). The antagonists were added to the well-plates at different concentrations (30 μM, 10 μM, 1 μM, 300 nM, 100 nM, 10 nM, 1 nM, 100 pM, 10 pM).
OT is added at a concentration of 40 nM.
The fluorescent market being sensitive to the amount of Ca^2+ mobilized within the cell may be quantified by the FLIPR machine.
The activities of the pyrrolidine derivatives according to formula I were assessed using the above described in vitro biological assay. The values refer to the capacity of the example compounds according to formula I to effectively antagonize oxytocin-induced intracellular Ca^2+-mobilization mediated by the Oxytocin receptor.

[1] = tested on: oxytocin-induced uterine contractions in the rat; test: In vivo model for inhibition of uterine contractions
Procedure: d) In Vivo Model for Inhibition of Uterine Contractions
The assay intends to show the biological effect of tested compounds in an in vivo model of preterm labor, premature birth.
Non-pregnant Charles River CD(SD) BR female rats (9–10 weeks old, 200–250 g) were treated at 18 and 24 hours before the experiment with 250 μg/kg, i.p. diethylstilbestrol (DES). For the assay, the animal was anaesthetised by urethane (1.75 g/kg, i.p.) and placed on an homeothermic operating table. The trachea was isolated and cannulated with a suitable polyethylene (PE) tubing. A midline incision at the hypogastrium level was made and one uterine horn exposed, its cephalic end cannulated with a PE240 tubing and, after filling the internal cavity with 0.2 ml of sterile physiological saline, connected to a “Gemini” amplifying/recording system via a P231D Gould Statham pressure transducer, in, order to measure said pressure. For the i.v. route of administration of the test compounds, one jugular vein was isolated and cannulated with a PE60 tubing connected to a butterfly needle to allow the administration by a dispensing syringe. In the case of intraduodenal administration of the test compounds, the duodenum was isolated and similarly cannulated through a small incision in its wall. One carotid artery was also isolated and cannulated with PE60 catheter and connected to a suitable syringe for blood sample collection (see below). After a stabilization period, the same dose of oxytocin was repeatedly injected intravenously at 30-min intervals. […] Further injections of the same dose of oxytocin were then made for a suitable time after treatment to assess inhibitory effects of the compounds under study. The contractile response of the uterus to oxytocin was quantified by measuring the intrauterine pressure and the number of contractions.
A total of six animals is forming one group which is treated with a given test compound at a given concentration (see above).
The effect of the test compounds were evaluated by comparing pre- and post-treatment pressure values. In addition, at 2, 30, 90 and 210 minutes after test compound administration, a 0.5-ml blood sample was withdrawn from the cannulated carotid artery of each experimental animal. Plasma was obtained by standard laboratory procedure and the resulting samples were stored at −20° C.
The activities of the pyrrolidine derivatives claimed in the formula I were assessed using the above described in vivo biological assay. The values refer to the capacity of the example compound according to formula I to effectively antagonize oxytocin-induced uterine contractions in the rat.

[2] = tested on: oxytocin-induced uterine contractions in the rat; test: as above; remark: listed apart in the source

SMILES | IC50 (hOT receptor) | IC50 (hOT-R) | other results
CON=C1C[C@@H](c2nc(CCO)no2)N(C(=O)c2ccc(-c3ccccc3)cc2)C1 [(3EZ,5S)-1-([1,1′-biphenyl]-4-ylcarbonyl)-5-[3-(2-hydroxyethyl)-1,2,4-oxadiazol-5-yl]-3-pyrrolidinone O-methyloxime] | 11 nM |  | 
CO/N=C1/C[C@@H](c2nc(C)no2)N(C(=O)c2ccc(-c3ccccc3C)cc2)C1 [(3Z,5S)-1-[(2′-methyl[1,1′-biphenyl]-4-yl)carbonyl]-5-(3-methyl-1,2,4-oxadiazol-5-yl)-3-pyrrolidinone O-methyloxime] | 9 nM | 4 nM | % Reduction of Uterine Contraction ([1]; Intravenous, NP3S 5 ml/kg infusion, 0.3 mg/kg): −21.5 ± 7.3%; % Reduction of Uterine Contraction ([1]; Intravenous, NP3S 5 ml/kg infusion, 1 mg/kg): −44.6 ± 7.1%; % Reduction of Uterine Contraction ([1]; Intravenous, NP3S 5 ml/kg infusion, 10 mg/kg): −67.2 ± 10.1%; % Reduction of Uterine Contraction ([2]; Intravenous, NP3S 5 ml/kg infusion, 3 mg/kg): −58.0 ±5.9%; % Reduction of Uterine Contraction ([2]; Intravenous, NP3S, 7.5 ml/kg infusion, 30 mg/kg): −80.3 ± 5.1%
CO/N=C1\C[C@@H](c2nc(C)no2)N(C(=O)c2ccc(-c3ccccc3C)cc2)C1 [(3E,5S)-1-[(2′-methyl[1,1′-biphenyl]-4-yl)carbonyl]-5-(3-methyl-1,2,4-oxadiazol-5-yl)-3-pyrrolidinone O-methyloxime] | 23 nM |  | 
CON=C1C[C@@H](c2nc(CC(=O)N3CCCC3)no2)N(C(=O)c2ccc(-c3ccccc3)cc2)C1 [(3EZ,5S)-1-([1,1′-biphenyl]-4-ylcarbonyl)-5-{3-[2-oxo-2-(1-pyrrolidinyl)ethyl]-1,2,4-oxadiazol-5-yl}-3-pyrrolidinone O-methyloxime] | 7 nM |  | 
CON=C1C[C@@H](c2nc(C)no2)N(C(=O)c2ccc(-c3ccccc3Cl)cc2)C1 [(3EZ,5S)-1-[(2′-chloro[1,1′-biphenyl]-4-yl)carbonyl]-5-(3-methyl-1,2,4-oxadiazol-5-yl)-3-pyrrolidinone O-methyloxime] |  | 1 nM | 
CON=C1C[C@@H](c2nnco2)N(C(=O)c2ccc(-c3ccccc3)cc2)C1 [(3EZ,5S)-1-([1,1′-biphenyl]-4-ylcarbonyl)-5-(1,3,4-oxadiazol-2-yl)-3-pyrrolidinone O-methyloxime] | 211 nM | 220 nM | 
CCC(O)c1noc([C@@H]2CC(=NOC)CN2C(=O)c2ccc(-c3ccccc3)cc2)n1 (mixture of isomers) [(3EZ,5S)-1-([1,1′-biphenyl]-4-ylcarbonyl)-5-{3-[(1RS)-1-hydroxypropyl]-1,2,4-oxadiazol-5-yl}-3-pyrrolidinone O-methyloxime] | 6 nM |  | 
CON=C1C[C@@H](c2noc(C3CCN(C(C)=O)CC3)n2)N(C(=O)c2ccc(-c3ccccc3)cc2)C1 [(3EZ,5S)-5-[5-(1-acetyl-4-piperidinyl)-1,2,4-oxadiazol-3-yl]-1-([1,1′-biphenyl]-4-ylcarbonyl)-3-pyrrolidinone O-methyloxime] | 2 nM |  | 
CON=C1C[C@@H](c2nc(C)no2)N(C(=O)c2ccc(-c3ccccc3C)cc2)C1 [(3EZ,5S)-1-[(2′-methyl[1,1′-biphenyl]-4-yl)carbonyl]-5-(3-methyl-1,2,4-oxadiazol-5-yl)-3-pyrrolidinone O-methyloxime] | 21 nM | 12 nM | 
CON=C1C[C@@H](c2nc(C)no2)N(C(=O)c2ccc(-c3ccccc3)cc2)C1 [(3EZ,5S)-1-([1,1′-biphenyl]-4-ylcarbonyl)-5-(3-methyl-1,2,4-oxadiazol-5-yl)-3-pyrrolidinone O-methyloxime] | 88 nM | 4 nM | 
CO/N=C1/C[C@@H](c2noc(CN(C)C)n2)N(C(=O)c2ccc(-c3ccccc3)cc2)C1 [(3Z,5S)-1-([1,1′-biphenyl]-4-ylcarbonyl)-5-{5-[(dimethylamino)methyl]-1,2,4-oxadiazol-3-yl}-3-pyrrolidinone O-methyloxime] |  |  | % Reduction of Uterine Contraction ([1]; oral, NP3S, 10 mg/kg): −49.5 ± 6.1%; % Reduction of Uterine Contraction ([1]; oral, NP3S, 30 mg/kg): −74.4 ± 4.2%; % Reduction of Uterine Contraction ([2]; oral, NP3S, 1 mg/kg): −11.1 ± 1.3%; % Reduction of Uterine Contraction ([2]; oral, NP3S, 3 mg/kg): −42.1 ± 2.9%
CO/N=C1\C[C@@H](c2nc(CCO)no2)N(C(=O)c2ccc(-c3ccccc3)cc2)C1 [Example 9 (3E), (3E,5S)-1-([1,1′-biphenyl]-4-ylcarbonyl)-5-[3-(2-hydroxyethyl)-1,2,4-oxadiazol-5-yl]-3-pyrrolidinone O-methyloxime] |  |  | melting point: 140.5 °C
CON=C1C[C@@H](c2noc(CNC(C)=O)n2)N(C(=O)c2ccc(-c3ccccc3)cc2)C1 [N-({3-[(2S,4EZ)-1-([1,1′-biphenyl]-4-ylcarbonyl)-4-(methoxyimino)pyrrolidinyl]-1,2,4-oxadiazol-5-yl}methyl)acetamide] | 3 nM |  | 
